The record followed here is patent US20150182629A1, “STABLE COMPOSITIONS OF FESOTERODINE” (HETERO RESEARCH FOUNDATION, priority 2012, published 2015).

The data set can be described thus: Stability evaluation of drug-excipient blend (impurities initially and after storage). Format: physicochemical. As for the experimental part:
According to the present invention stability of drug-excipient blend was evaluated based on percentage w/w of 2-((R)-3-(diisopropylamino)-1-phenylpropyl)-4-(hydroxymethyl)phenol impurity (H-FTFRC-01) and total impurities present in drug-excipient blend, initially and after storage for one month at 40° C. and 75% relative humidity.

Consider `CC(C)C(=O)Oc1ccc(CO)cc1[C@H](CCN(C(C)C)C(C)C)c1ccccc1.O=C(O)/C=C/C(=O)O` [Fesoterodine fumarate, isobutyric acid 2-((R)-3-diisopropylammonium-1phenylpropyl)-4-(hydroxymethyl) phenyl ester hydrogen fumarate], for which, for the setting “40° C./75% RH, 1 month”, the H-FTFRC-01 impurity was found to be 0.524 % w/w and the “Total Impurities” value stood at 1.245 % w/w. Moreover, under “Initial”, the H-FTFRC-01 impurity was determined as 0.284 % w/w and the “Total Impurities” value is reported as 0.800 % w/w.
